{"source": "patent US10676514B2", "about": "“CDCA1-derived peptide and vaccine containing same” (ONCOTHERAPY SCIENCE, INC., priority 2014, dated 2020)", "key": {"[1]": {"test_system": "peptide-pulsed C1R-A11 cells", "experiment": "IFN-gamma ELISPOT assay of peptide-induced CTLs (HLA-A*1101)", "format": "cell-based, human", "settings": "CTLs induced from HLA-A*1101-positive donors, peptide-pulsed C1R-A11 vs control", "text": "Monocyte-derived dendritic cells (DCs) were used as the antigen-presenting cell to induce a cytotoxic T lymphocyte (CTL) response against peptides presented on human leukocyte antigens (HLAs). As described in the other sections, DCs were generated in vitro (Nakahara S et al., Cancer Res 2003, 63(14): 4112-8). Specifically, peripheral-blood mononuclear cells isolated from healthy volunteers (HLA-A*1101-positive) with the Ficoll-Paque plus solution (Pharmacia) were separated by attaching to plastic tissue culture dishes (Becton Dickinson) and concentrated as a monocyte fraction. The monocyte-concentrated population was cultured in the presence of 1000 IU/ml granulocyte macrophage colony-stimulating factor (R&D System) and 1000 IU/ml interleukin(IL)-4 (R&D System) in an AIM-V medium (Invitrogen) containing 2% heat-inactivated autologous serum (AS). After seven days of culturing, the cytokine-induced DCs were pulsed with 20 micro-g/ml each of the synthesized peptides in an AIM-V medium at 37 degrees C. for three hours in the presence of 3 micro-g/ml beta 2-microglobulin. The generated cells appeared to express on their cell surface DC-associated molecules such as CD80, CD83, CD86 and HLA class II (data not shown). Next, these peptide-pulsed DCs were inactivated by X-ray irradiation (20 Gy), and mixed in a 1:20 ratio with autologous CD8^+ T cells obtained by positive selection using the CD8 Positive Isolation Kit (Dynal). These culture products were seeded in a 48-well plate (Corning). Each well was made to contain 1.5×10^4 peptide-pulsed DCs, 3×10^5 CD8^+ T cells and 10 ng/ml IL-7 (R&D System) in 0.5 ml of the AIM-V/2% AS medium. Three days later, these culture products were added with a final concentration of 20 IU/ml IL-2 (CHIRON). On day 7 and day 14, T cells were further stimulated with peptide-pulsed autologous DCs. The DCs were prepared every time by the same method as above. On day 21, after the third peptide stimulation, CTLs were examined against the peptide-pulsed C1R-A11 cells by a human interferon (IFN)-gamma enzyme-linked immunospot (ELISPOT) assay (Tanaka H et al., Br J Cancer 2001, 84(1): 94-9; Umano Y et al., Br J Cancer 2001, 84(8): 1052-7; Uchida N et al., Clin Cancer Res 2004, 10(24): 8577-86; Suda T et al., Cancer Sci 2006, 97(5): 411-9; Watanabe T et al., Cancer Sci 2005, 96(8): 498-506).\n(§1) Specifically, peptide-pulsed C1R-A11 (1×10^4 cells/well) was prepared as the stimulator cell. The induced CTLs, i.e., CTL lines and CTL clones, were used as the responder cell. The IFN-gamma ELISPOT assay and IFN-gamma ELISA were performed according to the manufacturer's manual."}, "peptide-pulsed C1R-A11": {"test_system": "peptide-pulsed C1R-A11", "experiment": "IFN-gamma ELISA of CTL lines and CTL clones (HLA-A*1101)", "format": "cell-based, human", "settings": "for IFN-gamma production of CTL lines: peptide-pulsed vs non-pulsed target cells, HLA-A*1101", "experimental": "CTLs were propagated in culture using methods similar to those disclosed by Riddell et al. (Walter E A et al., N Engl J Med 1995, 333(16): 1038-44; Riddell S R et al., Nat Med 1996, 2(2): 216-23). The CTLs were co-cultured in a total of 25 ml AIM-V medium containing 5% AS (AIM-V/5% AS) and 40 ng/ml anti-CD3 antibody with two types of Mitomycin C-treated human B lymphoblastoid cell lines at 5×10^6 cells/flask. One day after beginning of the culturing, 120 IU/ml IL-2 was added to the culture. On days 5, 8 and 11, a fresh AIM-V/5% AS medium containing 30 IU/ml IL-2 was added to the culture (Tanaka H et al., Br J Cancer 2001, 84(1): 94-9; Umano Y et al., Br J Cancer 2001, 84(8): 1052-7; Uchida N et al., Clin Cancer Res 2004, 10(24): 8577-86; Suda T et al., Cancer Sci 2006, 97(5): 411-9; Watanabe T et al., Cancer Sci 2005, 96(8): 498-506).\nDilution of CTLs was carried out to make 0.3, 1 and 3 cells/well in 96 round-bottomed microtiter plates (Nalge Nunc International). The CTLs were co-cultured with two types of Mitomycin C-treated human B lymphoblastoid cell lines at 1×10^4 cells/well in a total of 150 micro-l/well AIM-V/5% AS medium with 30 ng/ml anti-CD3 antibody and 125 IU/ml IL-2. Ten days later, IL-2 was added to the medium at 50 micro-l/well to reach a final concentration of 125 IU/ml. On day 14, the CTL activity was tested, and the CTL clones were propagated using the same method as described above (Uchida N et al., Clin Cancer Res 2004, 10(24): 8577-86; Suda T et al., Cancer Sci 2006, 97(5): 411-9; Watanabe T et al., Cancer Sci 2005, 96(8): 498-506).\nas §1"}}, "note": "Entries after “also recorded” stand apart in the source; their conditions may differ."}
{"sequence": "AAHQEALMK (a peptide derived from CDCA1) [SEQ ID NO: 13]", "values": [{"measurement": "peptide-specific CTL activity (IFN-gamma production)", "setting": "[1]; listed as CDCA1-A1-9-157", "value": "potent IFN-gamma production"}, {"measurement": "peptide-specific CTL activity (IFN-gamma production)", "setting": "[1]; listed as CDCA1-A11-9-157", "value": "potent IFN-gamma production; also recorded: significant specific CTL activity"}, {"measurement": "IFN-gamma production of CTL lines", "setting": "peptide-pulsed C1R-A11", "value": "potent IFN-gamma production"}]}
{"sequence": "CQLEVQLYQK (a peptide derived from CDCA1) [SEQ ID NO: 39]", "values": [{"measurement": "peptide-specific CTL activity (IFN-gamma production)", "setting": "[1]; listed as CDCA1-A11-10-289", "value": "potent IFN-gamma production; also recorded: significant specific CTL activity"}, {"measurement": "peptide-specific CTL activity (IFN-gamma production)", "setting": "[1]; listed as CDCA1A11-10-289", "value": "potent IFN-gamma production"}]}
{"sequence": "GADGKNLTK (a peptide derived from CDCA1) [SEQ ID NO: 21]", "values": [{"measurement": "peptide-specific CTL activity (IFN-gamma production)", "setting": "[1]; listed as CDCA1-A11-9-25", "value": "potent IFN-gamma production; also recorded: significant specific CTL activity"}, {"measurement": "IFN-gamma production of CTL lines", "setting": "peptide-pulsed C1R-A11", "value": "potent IFN-gamma production"}]}
{"sequence": "IVDSPEKLK (a peptide derived from CDCA1) [SEQ ID NO: 14]", "values": [{"measurement": "peptide-specific CTL activity (IFN-gamma production)", "setting": "[1]; listed as CDCA1-A11-9-244", "value": "potent IFN-gamma production; also recorded: significant specific CTL activity"}]}
{"sequence": "IVLQEGNSQK (a peptide derived from CDCA1) [SEQ ID NO: 40]", "values": [{"measurement": "peptide-specific CTL activity (IFN-gamma production)", "setting": "[1]; listed as CDCA1-A11-10-203", "value": "potent IFN-gamma production; also recorded: significant specific CTL activity"}]}
{"sequence": "KAAEDSYAK (a peptide derived from CDCA1) [SEQ ID NO: 9]", "values": [{"measurement": "peptide-specific CTL activity (IFN-gamma production)", "setting": "[1]; listed as CDCA1-A11-9-439", "value": "potent IFN-gamma production; also recorded: significant specific CTL activity"}, {"measurement": "IFN-gamma production of CTL lines", "setting": "peptide-pulsed C1R-A11", "value": "potent IFN-gamma production"}]}
{"sequence": "KILTGADGK (a peptide derived from CDCA1) [SEQ ID NO: 12]", "values": [{"measurement": "peptide-specific CTL activity (IFN-gamma production)", "setting": "[1]; listed as CDCA1-A1-9-21", "value": "potent IFN-gamma production"}, {"measurement": "peptide-specific CTL activity (IFN-gamma production)", "setting": "[1]; listed as CDCA1-A11-9-21", "value": "potent IFN-gamma production; also recorded: significant specific CTL activity"}]}
{"sequence": "KINKKHEDVK (a peptide derived from CDCA1) [SEQ ID NO: 58]", "values": [{"measurement": "peptide-specific CTL activity (IFN-gamma production)", "setting": "[1]; listed as CDCA1-A1-10-358", "value": "potent IFN-gamma production"}, {"measurement": "peptide-specific CTL activity (IFN-gamma production)", "setting": "[1]; listed as CDCA1-A11-10-358", "value": "significant specific CTL activity"}, {"measurement": "peptide-specific CTL activity (IFN-gamma production)", "setting": "[1]; listed as CDCA1A11-10-358", "value": "potent IFN-gamma production"}, {"measurement": "IFN-gamma production of CTL lines", "setting": "peptide-pulsed C1R-A11", "value": "potent IFN-gamma production"}]}
{"sequence": "KSNISEKTK (a peptide derived from CDCA1) [SEQ ID NO: 17]", "values": [{"measurement": "peptide-specific CTL activity (IFN-gamma production)", "setting": "[1]; listed as CDCA1-A11-9-213", "value": "potent IFN-gamma production; also recorded: significant specific CTL activity"}]}
{"sequence": "KTEENSFKR (a peptide derived from CDCA1) [SEQ ID NO: 19]", "values": [{"measurement": "peptide-specific CTL activity (IFN-gamma production)", "setting": "[1]; listed as CDCA1-A1-9-335", "value": "potent IFN-gamma production"}, {"measurement": "peptide-specific CTL activity (IFN-gamma production)", "setting": "[1]; listed as CDCA1-A11-9-335", "value": "potent IFN-gamma production; also recorded: significant specific CTL activity"}]}
{"sequence": "NAAHQEALMK (a peptide derived from CDCA1) [SEQ ID NO: 45]", "values": [{"measurement": "peptide-specific CTL activity (IFN-gamma production)", "setting": "[1]; listed as CDCA1-A1-10-156", "value": "significant specific CTL activity"}, {"measurement": "peptide-specific CTL activity (IFN-gamma production)", "setting": "[1]; listed as CDCA1-A11-10-156", "value": "potent IFN-gamma production"}]}
{"sequence": "NSFKRLMIVK (a peptide derived from CDCA1) [SEQ ID NO: 30]", "values": [{"measurement": "peptide-specific CTL activity (IFN-gamma production)", "setting": "[1]; listed as CDCA1-A11-10-339", "value": "potent IFN-gamma production; also recorded: significant specific CTL activity"}, {"measurement": "IFN-gamma production of CTL lines", "setting": "peptide-pulsed C1R-A11", "value": "potent IFN-gamma production"}]}
{"sequence": "SFKRLMIVKK (a peptide derived from CDCA1) [SEQ ID NO: 53]", "values": [{"measurement": "peptide-specific CTL activity (IFN-gamma production)", "setting": "[1]; listed as CDCA1-A11-10-340", "value": "potent IFN-gamma production; also recorded: significant specific CTL activity"}]}
{"sequence": "SQEIFLNLK (a peptide derived from CDCA1) [SEQ ID NO: 6]", "values": [{"measurement": "peptide-specific CTL activity (IFN-gamma production)", "setting": "[1]; listed as CDCA1-A11-9-419", "value": "potent IFN-gamma production; also recorded: significant specific CTL activity"}, {"measurement": "IFN-gamma production of CTL clones", "setting": "peptide-pulsed C1R-A11; CTL clones by limiting dilution, peptide-pulsed C1R-A11, listed as CDCA1-A11-9-419", "value": "Potent IFN-gamma production"}, {"measurement": "IFN-gamma production of CTL lines", "setting": "peptide-pulsed C1R-A11", "value": "potent IFN-gamma production"}]}
{"sequence": "TADILCPKAK (a peptide derived from CDCA1) [SEQ ID NO: 56]", "values": [{"measurement": "peptide-specific CTL activity (IFN-gamma production)", "setting": "[1]; listed as CDCA1-A1-10-106", "value": "significant specific CTL activity"}, {"measurement": "peptide-specific CTL activity (IFN-gamma production)", "setting": "[1]; listed as CDCA1-A11-10-106", "value": "potent IFN-gamma production"}]}
{"sequence": "TAELKRKMFK (a peptide derived from CDCA1) [SEQ ID NO: 35]", "values": [{"measurement": "peptide-specific CTL activity (IFN-gamma production)", "setting": "[1]; listed as CDCA1-A11-10-452", "value": "potent IFN-gamma production; also recorded: significant specific CTL activity"}]}
{"sequence": "VTTINQEIQK (a peptide derived from CDCA1) [SEQ ID NO: 33]", "values": [{"measurement": "peptide-specific CTL activity (IFN-gamma production)", "setting": "[1]; listed as CDCA1-A1-10-391", "value": "no specific IFN-gamma production"}, {"measurement": "peptide-specific CTL activity (IFN-gamma production)", "setting": "[1]; listed as CDCA1-A11-10-391", "value": "specific IFN-gamma production was not observed"}]}
